# Ends that are not written are not given here.
# Columns and labels:
# [1] = tested on: 161br human skin fibroblasts; test: in vitro; assay type: cell-based; settings: 72 h, 0.05 wt %
# Protocol: (§1) The cytotoxicity of both R3F3 and R4F4 was examined. In vitro cell culture was conducted using 161Br (European Collection of Authenticated Cell Cultures, ECACC) cells, a human skin fibroblast cell line. Cells were cultured in EMEM (Eagle’s minimum essential medium), with 2 mM glutamine, enriched with 15% fetal bovine serum (FBS) and 1% nonessential amino acids (NEAA). Cells were maintained in a humidified atmosphere of 37 °C, 5% CO2.
# (§2) Potential cytotoxicity effects were examined using the MTT (3-(4,5-dimethylthiazol-2-yl)-2,5-diphenyltetrazolium bromide) assay. The peptides were dissolved in complete media. Cells were seeded into a 96-well plate at 4 × 10^4 cells/mL and allowed to adhere for 24 h in 100 μL complete medium. After this, 100 μL of either complete media and/or peptide solution was added, to give either control solution, or solutions of peptide between the concentrations of 0.0625–4 mg/mL.
# (§3) Cells were incubated for 67 h. After this, 20 μL MTT (5 mg/mL, in PBS) was added to each well plate and allowed to incubate for 5 h. After a further 5 h (72 h total), the solution was removed from the wells and replaced with 100 μL of DMSO per well, which dissolves the formazan crystals. Plates were incubated for 30 min, and then analyzed using a UV microplate reader (λ = 570 nm). Results are reported as a percentage cell viability compared to control (untreated) values, and fitted to a sigmoidal function using Origin Lab as a guide to the eye.
# (§4) Figure S2. CD data for a) R3F3 and b) R4F4 with DPPG (concentrations indicated) .
# (§5) Figure S3. Cytotoxicity profiles from MTT assays, where 161br Human fibroblasts were exposed to
# (§6) (a) R3F3 and (b) R4F4 for 72 hours. Control solutions were prepared by incubating cells with complete
# (§7) media. Results are reported as a percentage compared to the control solutions. Error bars are the
# (§8) standard deviation of 3 biological replicates (with 3 technical replicates pe r assay). IC50 values
# (§9) (vertical blue dashed lines) were calculated in Origin using sigmoidal fits to the viability data (dashed […]
# in vitro = assay type: cell-based, human; settings: human
# Protocol: as §1, §2, §3, §4, §5, §6, §7, §8, §9
# [2] = previously reported; cited from earlier work
# Protocol: The two “blocky” surfactant-like peptides […] and […] are both able to self-assemble in aqueous solution at concentrations in excess of critical values, obtained from fluorescence probe assays. The cac = 0.3 wt % (≡ 3.2 mM) for […] is higher than that previously obtained for the compositional homologue peptide […], for which the cac = 2.3 mM.[16]
Substance,viability of human skin fibroblasts [1],IC50 at 72 h (in vitro),cac of compositional homologue peptide [2]
RRRFFF [R3F3],77%,4.31 mM,–
RRRRFFFF [R4F4],81%,2.15 mM,–
"RFRFRF [previously studied alternating RF peptide, compositional homologue of R3F3]",–,–,2.3 mM
"RFRFRFRF [[RF]4, previously studied oligopeptide of alternating RF motifs, compositional homologue of R4F4]",–,–,0.34 mM

# — article PMC7147261, “Selective Antibacterial Activity and Lipid Membrane Interactions of Arginine-Rich Amphiphilic Peptides” (ACS Applied Bio Materials, 2020)
